Source: ChEMBL document CHEMBL3639274, “Compounds for the treatment of neurodegenerative diseases” (2015)

What was measured:
[1] = biological target: Microtubule-associated protein tau (Homo sapiens, UniProt P10636); experiment: Thio S Fluorometry Assay: The Thio S fluorometry assay as a primary screening method to identify tau protein aggregation inhibitors from our small molecule library. Aggregated tau fibrils were prepared in the presence of equimolar ratios of TauRD and heparin (10 μM each) in 20 mM Na-phosphate buffer, pH7.4. The reaction mixture was incubated at 37° C. with shaking (800-1000 rpm) for 22-24 hr (or for 3 days). In the Thio S inhibition assays, test compounds at 0, 0.1, 1, 10 and 100 μM were added at time 0 into the reaction containing TauRD and heparin. The same reaction mixture (+/− increasing concentrations of compounds) but without TauRD were also set up in parallel to serve as background controls. For all test compounds background fluorescence readings were very low, usually <5% of those of the TauRD-containing wells. For each compound, the IC50 was calculated using Prism version 5 software (GraphPad Software) by nonlinear regression [(Log [inhibitor] vs. normalized response; variable slope)].
[2] = biological target: Alpha-synuclein (Homo sapiens, UniProt P37840); experiment: In order to assess relative binding affinities of the test compounds for aggregated α-synuclein, competition assays were set up with a radiolabeled molecule already known to bind to α-synuclein fibrils and non-radiolabeled test compounds. In order to induce its aggregation, α-synuclein was incubated in phosphate buffered saline (PBS, pH 7.4) at 37° C. for three days with shaking (1,400 rpm). Competitive binding assays were carried out in 12×75 mm borosilicate glass tubes.

Microtubule-associated protein tau, sequence (P10636 whole entry): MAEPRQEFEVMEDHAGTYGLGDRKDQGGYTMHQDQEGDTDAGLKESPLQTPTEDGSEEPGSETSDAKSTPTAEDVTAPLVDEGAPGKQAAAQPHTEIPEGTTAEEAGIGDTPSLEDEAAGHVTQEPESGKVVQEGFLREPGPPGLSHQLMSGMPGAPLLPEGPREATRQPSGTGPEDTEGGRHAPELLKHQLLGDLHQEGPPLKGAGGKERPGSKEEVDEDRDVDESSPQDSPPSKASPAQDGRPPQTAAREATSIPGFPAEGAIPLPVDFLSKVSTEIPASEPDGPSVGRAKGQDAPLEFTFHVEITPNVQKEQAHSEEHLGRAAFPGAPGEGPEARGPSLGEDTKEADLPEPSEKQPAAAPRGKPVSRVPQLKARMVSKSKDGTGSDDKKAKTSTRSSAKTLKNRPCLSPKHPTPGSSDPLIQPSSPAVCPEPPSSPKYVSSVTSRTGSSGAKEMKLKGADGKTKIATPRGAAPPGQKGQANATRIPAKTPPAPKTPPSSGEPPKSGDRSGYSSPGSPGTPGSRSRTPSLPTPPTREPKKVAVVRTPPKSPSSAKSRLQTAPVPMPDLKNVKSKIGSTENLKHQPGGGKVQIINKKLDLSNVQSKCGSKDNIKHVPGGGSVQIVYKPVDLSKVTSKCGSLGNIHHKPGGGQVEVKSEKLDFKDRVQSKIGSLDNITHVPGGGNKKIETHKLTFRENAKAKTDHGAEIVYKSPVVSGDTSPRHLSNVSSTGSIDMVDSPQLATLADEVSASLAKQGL

Question: Which IC50 [1] does the source give for `O=C(/C=C/c1ccc(O)c(O)c1)c1ccc(O)c(O)c1` here?
Answer: Its IC50 is 21.4 µM.

Question: With `O=C(/C=C/c1ccc(O)c(O)c1)c1cc(O)c(O)cc1Br` as the molecule, how does the IC50 [1] read?
Answer: The IC50 was 21.2 µM.

Question: With `Oc1ccc(-c2cc(Br)c(-c3ccc(O)c(O)c3)s2)cc1O` as the molecule, how does the IC50 [1] read?
Answer: The IC50 was 211 µM.

Question: `Oc1ccc(-c2nsc(-c3ccc(O)c(O)c3)n2)cc1O` was tested. Which IC50 [1] did it give?
Answer: The IC50 was 10.2 µM.

Question: `Oc1ccc(-c2nc3cc(O)c(O)cc3o2)cc1O` was tested. Which IC50 [1] did it give?
Answer: Its IC50 is 7.34 µM.

Question: For `Oc1ccc(-c2nnc(-c3ccc(O)c(O)c3)o2)cc1O`, which IC50 [1] is on record?
Answer: The IC50 was 3940 µM.

Question: For `Oc1ccc(-c2cn(-c3ccc(O)c(O)c3)nn2)cc1O`, which IC50 [1] is on record?
Answer: The IC50 was 34 µM.

Question: How did the IC50 [1] turn out when `Oc1ccc(-c2cnc(-c3ccc(O)c(O)c3)o2)cc1O` was run?
Answer: The IC50 was 117 µM.

Question: What about the Ki [2] of the same molecule?
Answer: The Ki was 659 nM.

Question: `O=C(/C=C/c1cc(O)c(O)cc1Br)c1ccc(O)c(O)c1` was tested. Which IC50 [1] did it give?
Answer: Its IC50 is 9.02 µM.

Question: With `Oc1ccc(Cc2cc(O)c(O)cc2O)cc1O` as the molecule, how does the IC50 [1] read?
Answer: The IC50 was 5.2 µM.

Question: `CC(=O)N1N=C(c2ccc(O)c(O)c2)CC1c1ccc(O)c(O)c1` (stereo not drawn) was tested. Which IC50 [1] did it give?
Answer: The IC50 was 78.5 µM.

Question: For `O=[N+]([O-])c1cc(-c2ccc(O)c(O)c2)ccc1-c1ccc(O)c(O)c1`, which IC50 [1] is on record?
Answer: The IC50 was 24.7 µM.
